According to patent publication US10231956B2, “3-(1H-pyrrolo[3,2-C]pyridin-2-YL)-1 H-pyrazolo[4,3-B]pyridines and therapeutic uses thereof” (Samumed, LLC, priority 2015, dated 2019):

Legend:
Type in all cases: cell-based
SW480 colon cancer cells = assay: Cell viability assay (CellTiter-Blue) in SW480 colon cancer cells; conditions: Homo sapiens, 96 h, four days, CellTiter-Blue
Method: Representative compounds were screened using the following assay procedure to assess the effect on cell viability as described below.
Each compound was dissolved in DMSO as a 10 mM stock and used to prepare compound source plates. Serial dilution (1:3, 8-point dose-response curves from 10 μM to 0.0045 μM) and compound transfer was performed using the ECHO 550 (Labcyte, Sunnyvale, Calif.) into 96-well clear bottom, black-walled plates (Corning-Costar).
Approximately 2×10^3 SW480 colon cancer cells were seeded into each well and allowed to incubate in the presence or absence of compound for four days at 37° C./5% CO2. Eight replicates of DMSO-treated cells served as controls and cells treated with compound were performed in duplicate.
After incubation, 20 μL of CellTiter-Blue (Promega) was added to each well allowed to incubate for approximately 3 hours. This reagent was a buffered solution which contains resazurin, metabolically active cells were able to reduce rezarurin (blue) into resorufin (pink) which was highly fluorescent. This measured fluorescence was used as a readout for cell viability.
After incubation, the plates were read at Ex 560 nm Em 590 nm (Cytation 3, BioTek). Dose-response curves were generated and EC50 concentration values were calculated using non-linear regression curve fit in the GraphPad Prism (San Diego, Calif.) or Dotmatics' Studies Software (Bishops Stortford, UK). For EC50 of >10 μM, the percent inhibition at 10 μM is provided.

[1] = system: primary human fibroblasts derived from IPF patients (LL29 cells); assay: Inhibition of fibrotic process: αSMA staining in TGF-β1 treated LL29 fibroblasts; conditions: Fibroblast, 96 h, TGF-β1 20 ng/mL, 4 days, % cells positive for αSMA
Description: Representative compounds were screened using primary human fibroblasts (derived from IPF patients) treated with TGF-β1 to determine their ability to inhibit the fibrotic process.
Human Fibroblast Cell Culture: Primary human fibroblasts derived from IPF patients (LL29 cells) [^1Xiaoqiu Liu, et. al., “Fibrotic Lung Fibroblasts Show Blunted Inhibition by cAMP Due to Deficient cAMP Response Element-Binding Protein Phosphorylation”, Journal of Pharmacology and Experimental Therapeutics (2005), 315(2), 678-687; ^2Watts, K. L., et. al., “RhoA signaling modulates cyclin D1 expression in human lung fibroblasts; implications for idiopathic pulmonary fibrosis”, Respiratory Research (2006), 7(1), 88] were obtained from American Type Culture Collection (ATCC) and expanded in F12 medium supplemented with 15% Fetal Bovine Serum and Penicillin/Streptomycin.
Compound Screening: Each compound was dissolved in DMSO as a 10 mM stock and used to prepare compound source plates. Serial dilution (1:2, 11-point dose-response curves from […]) and compound transfer was performed using the ECHO 550 (Labcyte, Sunnyvale, Calif.) into 384-well clear bottom assay plates (Greiner Bio-One) with appropriate DMSO backfill for a final DMSO concentration of 0.1%. LL29 cells are plated at 1,500 cells/well in 80 μL/well F12 medium supplemented with 1% Fetal Bovine Serum. One hour after addition of the cells, TGF-β1 (Peprotech; 20 ng/mL) was added to the plates to induce fibrosis (ref. 1 and 2 above). Wells treated with TGF-β1 and containing DMSO were used as controls. Cells were incubated at 37° C. and 5% CO2 for 4 days. Following incubation for 4 days, SYTOX green nucleic acid stain (Life Technologies [Thermo Fisher Scientific]) was added to the wells at a final concentration of 1 μM and incubated at room temperature for 30 min. Cells were then fixed using 4% formaldehyde (Electron Microscopy Sciences), washed 3 times with PBS followed by blocking and permeabilization using 3% Bovine Serum Albumin (BSA; Sigma) and 0.3% Triton X-100 (Sigma) in PBS. Cells were then stained with antibody specific to α-smooth muscle actin (αSMA; Abcam) (ref. 1 and 2 above) in 3% Bovine Serum Albumin (BSA; Sigma) and 0.3% Triton X-100 (Sigma) in PBS, and incubated overnight at 4° C. Cells were then washed 3 times with PBS, followed by incubation with Alexa Flor-647 conjugated secondary antibody (Life Technologies [Thermo Fisher Scientific]) and DAPI at room temperature for 1 hour. Cells were then washed 3 times with PBS and plates were sealed for imaging. αSMA staining was imaged by excitation at 630 nm and emission at 665 nm and quantified using the Compartmental Analysis program on the CellInsight CX5 (Thermo Scientific). Dead or apoptotic cells were excluded from analysis based on positive SYTOX green staining. % of total cells positive for αSMA were counted in each well and normalized to the average of 11 wells treated with TGF-β1 on the same plate using Dotmatics' Studies Software. The normalized averages (fold change over untreated) of 3 replicate wells for each compound concentration were used to create dose-responses curves and EC50 values were calculated using non-linear regression curve fit in the Dotmatics' Studies Software. For EC50 of >10 μM, the percent inhibition at 10 μM is provided.

IL-6 = IL-6 inhibition in LPS-stimulated THP-1 cells (HTRF); conditions: Homo sapiens, LPS 500 ng/mL, 22 hours, IL6 HTRF
Method: Human Monocyte Cell Culture: Human monocyte cell line (THP-1 cells; Catalog # TIB-202, ATCC, Manassas, Va.) were cultured in Roswell Park Memorial Institute (RPMI) 1640 Medium (Catalog #21870-100, Buffalo, N.Y.) with 1% L-glutamine, 1% HEPES, 1% Sodium Pyruvate, 2% Sodium Bicarbonate supplemented with 100 units/mL penicillin, 50 μg/mL streptomycin, 2-mercaptoethanol (0.05 mM) [basal medium] and 10% fetal bovine serum (Catalog #16140089, Life Technologies, Carlsbad, Calif.) at 37° C. and 5% CO2.
Compound Screening: THP-1 cells were cultured in basal media with 1% FBS for 24 hours before the start of the assay. Each compound was dissolved in DMSO as a 10 mM stock and used to prepare compound source plates. Serial dilution (1:3, 10-point dose-response curves starting from 1 μM) and compound transfer was performed using the ECHO 550 (Labcyte, Sunnyvale, Calif.) into 384-well white low volume assay plates (Greiner Bio-One) with appropriate DMSO backfill for a final DMSO concentration of 0.1%. THP-1 cells were plated at 5000 cells/well in the 384-well plates and incubated at 37° C. for 2 h. 500 ng/mL of LPS was added after 2 hours and cells were incubated for another 22 hours at 37° C. Plates were spun in a centrifuge for 1 minute at 10,000 rpm and a mixture of anti-IL6 XL665, and anti-IL6 Cryptate diluted in reconstitution buffer (Cisbio Inc.) was added to each well. Following incubation for 3 hrs at room temperature, Homogeneous Time-Resolved Fluorescence (HTRF) was measured using the Envision (Perkin Elmer) at 665 nm and […]. The ratio of fluorescence at 665 nm to 620 nm was used as a readout for IL6 quantification. All samples were processed in duplicate. Readings were normalized to DMSO treated cells and normalized activities were utilized for EC50 calculations using the dose-response log (inhibitor) vs. response-variable slope (four parameters) nonlinear regression feature available in GraphPad Prism 5.0 (or Dotmatics). For EC50 of >10 μM, the percent inhibition at 10 μM is provided.

[2] = system: Wnt activity (Sp5-Luc reporter, SW480 colon carcinoma cells); assay: Sp5-Luc reporter gene screening assay for Wnt activity in SW480 cells; conditions: Homo sapiens, luminescence, overnight incubation
Description: The screening assay for Wnt activity is described as follows. Reporter cell lines can be generated by stably transducing cancer cell lines (e.g., colon cancer) or primary cells (e.g., IEC-6 intestinal cells) with a lentiviral construct that includes a Wnt-responsive promoter driving expression of the firefly luciferase gene.
SW480 colon carcinoma cells were transduced with a lentiviral vector expressing luciferase with a human Sp5 promoter consisting of a sequence of eight TCF/LEF binding sites. SW480 cells stably expressing the Sp5-Luc reporter gene and a hygromycin resistance gene were selected by treatment with 150 μg/mL of hygromycin for 7 days. These stably transduced SW480 cells were expanded in cell culture and used for all further screening activities. Each compound was dissolved in DMSO as a 10 mM stock and used to prepare compound source plates. Serial dilution (1:3, 10-point dose-response curves starting from 10 μM) and compound transfer was performed using the ECHO 550 (Labcyte, Sunnyvale, Calif.) into 384-well white solid bottom assay plates (Greiner Bio-One) with appropriate DMSO backfill for a final DMSO concentration of 0.1%. For Sp5-Luc reporter gene assays, the cells were plated at 4,000 cells/well in 384-well plates with medium containing 1% fetal bovine serum and incubated overnight at 37° C. and 5% CO2. Following incubation, 20 μl of BrightGlo luminescence reagent (Promega) was added to each well of the 384-well assay plates. The plates were placed on an orbital shaker for 2 min and then luminescence was quantified using the Envision (Perkin Elmer) plate reader. Readings were normalized to DMSO only treated cells, and normalized activities were utilized for EC50 calculations using the dose-response log (inhibitor) vs. response-variable slope (four parameters) nonlinear regression feature available in GraphPad Prism 5.0 (or Dotmatics). For EC50 of >10 μM, the percent inhibition at 10 μM is provided.

EC50 (SW480 colon cancer cells): 555 nM | EC50 (IL-6): 9020 nM | EC50 [2]: 1010 nM
Structure (SMILES): c1cc2[nH]c(-c3n[nH]c4ccc(-c5cncc(OC6CCCCC6)c5)nc34)cc2c(-c2ccoc2)n1 [Compound 687, 5-(5-(Cyclohexyloxy)pyridin-3-yl)-3-(4-(furan-3-yl)-1H-pyrrolo[3,2-c]pyridin-2-yl)-1H-pyrazolo[4,3-b]pyridine]
EC50 [1]: 452 nM
